Source: patent US20060057696A1, “Sugar chain synthases” (priority 2002, published 2006)
Marks after values point to notes of the source that are not given here.

Key:
Type in all cases: biochemical
[1] = biological target: T1, PA-mST8Sia VI (mouse ST8Sia VI) (Mus musculus, UniProt Q8K4T1); experiment: Sialyltransferase activity of PA-mST8Sia VI toward acceptor substrates; conditions: for Relative rate (%) Mouse ST8SiaVI: incorporation with Fetuin taken as 100, substrate 0.5 mg/ml glycolipids, 1 mg/ml glycoproteins, monosaccharides and oligosaccharides
T1 construct: amino acids 26-398 in the case of mouse ST8Sia VI; signal peptide of mouse immunoglobulin IgM (N); made in house; host or cells: COS-7 cells, transient expression of pcDSA-mST8Sia VI; protein recovered from medium on IgG-Sepharose
T1 sequence (Q8K4T1 26-398): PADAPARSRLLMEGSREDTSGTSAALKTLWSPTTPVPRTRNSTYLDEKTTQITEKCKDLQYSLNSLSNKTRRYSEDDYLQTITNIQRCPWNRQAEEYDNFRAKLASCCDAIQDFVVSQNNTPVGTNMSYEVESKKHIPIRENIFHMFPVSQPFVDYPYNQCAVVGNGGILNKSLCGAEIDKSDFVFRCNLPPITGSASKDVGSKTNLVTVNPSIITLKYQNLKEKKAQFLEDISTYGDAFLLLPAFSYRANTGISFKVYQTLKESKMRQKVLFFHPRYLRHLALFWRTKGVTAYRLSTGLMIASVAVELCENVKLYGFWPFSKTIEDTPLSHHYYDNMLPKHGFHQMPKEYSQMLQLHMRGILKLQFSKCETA
Procedure: (§1) Using each expression vector and lipofectamine (Invitrogen), transient expression was carried out in COS-7 cells (Kojima, N. et al. (1995) FEBS Lett. 360, 1-4). The proteins of the present invention secreted from the cells into which each expression vector had been introduced were named as PA-mST8Sia VI (mouse) and PA-hST8Sia VI (human). PA-mST8Sia VI and PA-hST8Sia VI were adsorbed to IgG-Sepharose (Amersham Pharmacia Biotech), and were then recovered from medium. Sialyltransferase activity was measured as follows according to the method of Lee et al. (Lee, Y.-C. et al. (1999) J. Biol. Chem. 274, 11958-11967). A reaction solution (10 μl) containing 50 mM MES buffer (pH 6.0), 1 mM MgCl2, 1 mM CaCl2, 0.5% Triton CF-54, 100 μM CMP-[^14C]-NeuAc, a glycoconjugate (which was added at 0.5 mg/ml in the case of glycolipids, and at 1 mg/ml in the case of glycoproteins or oligosaccharides), and a PA-mST8Sia VI or PA-hST8Sia VI suspension, was incubated at 37° C. for 3 to 20 hours. Thereafter, in the case of glycolipids, the reaction product was purified with a C-18 column (Sep-Pak Vac 100 mg; Waters) and the purified product was used as a sample, and in the case of oligosaccharides or glycoproteins, the reaction product was directly used as a sample. Thus, the obtained samples were subjected to analysis. In the case of oligosaccharides or glycolipids, the sample was spotted on a silica gel 60 HPTLC plate (Merck), and was then developed with a developing solvent consisting of ethanol:pyridine:n-butanol:water:acetic acid=100:10:10:30:3 (for oligosaccharides), a developing solvent consisting of 1-propanol:ammonia water:water=6:1:2.5 (for oligosaccharides), or a developing solvent consisting of chloroform:methanol: 0.02% CaCl2=55:45:10 (for glycolipids). In the case of glycoproteins, analysis was carried out by SDS-polyacrylamide gel electrophoresis. The obtained radioactivities were visualized with a BAS2000 radio image analyzer (Fuji Film) and then quantified.

[2] = biological target: T2, PA-hST8Sia VI (human ST8Sia VI) (Homo sapiens, UniProt P61647, L267F); experiment: Sialyltransferase activity of PA-hST8Sia VI toward acceptor substrates; conditions: incorporation with Fetuin taken as 100, substrate 0.5 mg/ml glycolipids, 1 mg/ml glycoproteins, monosaccharides and oligosaccharides
T2 construct: amino acids 68-398 in the case of human ST8Sia VI; signal peptide of mouse immunoglobulin IgM (N); made in house; host or cells: COS-7 cells, transient expression of pcDSA-hST8Sia VI; protein recovered from medium on IgG-Sepharose
T2 sequence (P61647 68-398 L267F): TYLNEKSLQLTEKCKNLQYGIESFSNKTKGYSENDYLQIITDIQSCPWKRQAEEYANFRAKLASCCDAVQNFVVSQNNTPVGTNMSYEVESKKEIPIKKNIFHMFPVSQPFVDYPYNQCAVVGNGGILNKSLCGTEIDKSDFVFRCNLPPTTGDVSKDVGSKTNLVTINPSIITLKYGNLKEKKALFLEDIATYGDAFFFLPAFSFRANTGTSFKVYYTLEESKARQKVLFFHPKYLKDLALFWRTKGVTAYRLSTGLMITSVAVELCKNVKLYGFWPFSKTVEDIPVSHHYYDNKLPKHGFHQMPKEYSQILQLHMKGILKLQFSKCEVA
Procedure: as §1

[3] = biological target: T3, PA-mST6Gal II (mouse ST6Gal II) (Mus musculus, UniProt Q76K27, R48S); experiment: Sialyltransferase activity of PA-mST6Gal II toward acceptor substrates; conditions: for Relative rate (%) Mouse ST6Gal II: PA-mST6Gal II, incorporation with Galβ1,4GlcNAc taken as 100, 0.5 mg/ml glycolipids, 1 mg/ml glycoproteins and oligosaccharides
T3 construct: amino acids 31-524 in the case of mouse ST6Gal II; signal peptide of mouse immunoglobulin IgM (N); made in house; host or cells: COS-7 cells, transient expression of pcDSA-mST6Gal II; protein recovered from medium on IgG-Sepharose
T3 sequence (Q76K27 31-524 R48S): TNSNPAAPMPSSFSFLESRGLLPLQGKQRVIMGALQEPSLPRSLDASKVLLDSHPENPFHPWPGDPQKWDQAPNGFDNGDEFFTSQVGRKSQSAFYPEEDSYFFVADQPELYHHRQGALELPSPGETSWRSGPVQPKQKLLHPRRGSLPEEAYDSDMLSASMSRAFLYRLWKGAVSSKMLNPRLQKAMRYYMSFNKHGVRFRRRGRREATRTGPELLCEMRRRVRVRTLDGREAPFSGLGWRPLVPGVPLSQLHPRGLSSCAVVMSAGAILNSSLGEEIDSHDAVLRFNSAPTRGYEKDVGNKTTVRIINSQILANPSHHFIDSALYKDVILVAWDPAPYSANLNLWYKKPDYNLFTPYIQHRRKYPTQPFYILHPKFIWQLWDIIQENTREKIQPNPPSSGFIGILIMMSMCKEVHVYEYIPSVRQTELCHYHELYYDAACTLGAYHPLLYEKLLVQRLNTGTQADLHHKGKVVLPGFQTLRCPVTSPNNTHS
Procedure: (§2) Using each expression vector and lipofectamine (Invitrogen), transient expression was carried out in COS-7 cells (Kojima, N. et al. (1995) FEBS Lett. 360, 1-4). The proteins of the present invention secreted from the cells into which each expression vector had been introduced were named as PA-hST6Gal II (human) and PA-mST6Gal II (mouse). PA-hST6Gal II and PA-mST6Gal II were adsorbed to IgG-Sepharose (Amersham Pharmacia Biotech), and were then recovered from medium. Sialyltransferase activity was measured as follows according to the method of Lee et al. (Lee, Y.-C. et al. (1999) J Biol. Chem. 274, 11958-11967). A reaction mixture (10 μl) containing 50 mM MES buffer (pH 6.0), 1 mM MgCl2, 1 mM CaCl2, 0.5% Triton CF-54, 100 μM CMP-[^14C]-NeuAc, a substrate sugar chain (which was added at 0.5 mg/ml in the case of glycolipids, and at 1 mg/ml in the case of glycoproteins or oligosaccharides), and a PA-hST6Gal II or PA-mST6Gal II suspension, was incubated at 37° C. for 3 to 20 hours. Thereafter, in the case of glycolipids, the reaction product was purified with a C-18 column (Sep-Pak Vac 100 mg; Waters) and the purified product was used as a sample. In the case of oligosaccharides or glycoproteins, the reaction product was directly used as a sample. Thus, the obtained sample was subjected to analysis. In the case of oligosaccharides or glycolipids, the sample was spotted on a silica gel 60 HPTLC plate (Merck), and it was then developed with a developing solvent consisting of 1-propanol:ammonia water:water=6:1:2.5 (for oligosaccharides), or a developing solvent consisting of chloroform:methanol: 0.02% CaCl2=55:45:10 (for glycolipids). In the case of glycoproteins, analysis was carried out by SDS-polyacrylamide gel electrophoresis. The obtained radioactivities were visualized with a BAS2000 radio image analyzer (Fuji Film) and then quantified.

[4] = biological target: T4, PA-hST6Gal II (human ST6Gal II) (Homo sapiens, UniProt Q96JF0); experiment: Sialyltransferase activity of PA-hST6Gal II toward acceptor substrates; conditions: for Relative rate (%) Human ST6Gal II: PA-hST6Gal II, incorporation with Galβ1,4GlcNAc taken as 100, 0.5 mg/ml glycolipids, 1 mg/ml glycoproteins and oligosaccharides
T4 construct: amino acids 33-529 in the case of human ST6Gal II; signal peptide of mouse immunoglobulin IgM (N); made in house; host or cells: COS-7 cells, transient expression of pcDSA-hST6Gal II; protein recovered from medium on IgG-Sepharose
T4 sequence (Q96JF0 33-529): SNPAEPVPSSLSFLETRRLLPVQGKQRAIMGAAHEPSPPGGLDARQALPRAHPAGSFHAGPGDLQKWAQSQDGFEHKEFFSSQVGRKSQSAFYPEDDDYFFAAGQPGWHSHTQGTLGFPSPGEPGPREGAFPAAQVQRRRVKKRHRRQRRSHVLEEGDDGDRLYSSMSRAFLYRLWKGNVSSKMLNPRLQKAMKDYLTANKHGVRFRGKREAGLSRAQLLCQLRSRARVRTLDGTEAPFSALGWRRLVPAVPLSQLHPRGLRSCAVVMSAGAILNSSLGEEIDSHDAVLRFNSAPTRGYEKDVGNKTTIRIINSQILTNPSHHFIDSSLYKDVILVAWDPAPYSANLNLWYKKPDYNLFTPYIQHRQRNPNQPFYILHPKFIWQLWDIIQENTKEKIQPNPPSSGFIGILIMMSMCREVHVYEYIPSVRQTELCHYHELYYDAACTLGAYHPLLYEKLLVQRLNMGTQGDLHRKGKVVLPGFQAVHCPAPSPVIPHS
Procedure: as §2

[5] = biological target: T5, human ST6Gal I (Homo sapiens, UniProt P15907); experiment: Sialyltransferase activity of human ST6Gal I toward acceptor substrates (comparison); conditions: for Relative rate (%) Human ST6Gal I: incorporation with Galβ1,4GlcNAc taken as 100, 0.5 mg/ml glycolipids, 1 mg/ml glycoproteins and oligosaccharides
T5 sequence (P15907 1-406): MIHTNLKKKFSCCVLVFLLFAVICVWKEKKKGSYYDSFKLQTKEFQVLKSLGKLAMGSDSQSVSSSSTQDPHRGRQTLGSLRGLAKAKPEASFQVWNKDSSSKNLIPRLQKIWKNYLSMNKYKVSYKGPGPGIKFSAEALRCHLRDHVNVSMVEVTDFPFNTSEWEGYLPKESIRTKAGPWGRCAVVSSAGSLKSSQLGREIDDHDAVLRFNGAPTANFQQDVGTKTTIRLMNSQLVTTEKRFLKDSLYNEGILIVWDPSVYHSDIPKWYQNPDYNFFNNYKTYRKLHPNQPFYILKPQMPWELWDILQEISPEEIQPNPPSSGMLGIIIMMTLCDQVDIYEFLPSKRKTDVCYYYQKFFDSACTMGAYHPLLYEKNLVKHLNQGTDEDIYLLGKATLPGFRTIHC
Procedure: as §2
In contrast, there were no glycolipids, which could be substrates of both the enzymes, as far as the inventors have examined. The activity of human ST6Gal I on oligosaccharides was also examined for comparison. […] (FIG. 10).

Relative rate (%) Mouse ST8SiaVI [1]	Relative rate (%) Human ST8Sia VI [2]	Relative rate (%) Mouse ST6Gal II [3]	Relative rate (%) Human ST6Gal II [4]	Relative rate (%) Human ST6Gal I [5]	Compound	other results
0%	0%				NeuAcα2,8NeuAcα2,3Galβ1,4Glcβ1-Cer [GD3]	
		0%	0%	0%	Galβ1,3GalNAcβ1,4Galβ1,4Glcβ1-Cer [GA1]	
6.0%	1.8%				NeuAcα2,3Galβ1,3GalNAcβ1,4(NeuAca2,3)Galβ1,4Glcβ1-Cer [GD1a]	activity of PA-mST8Sia VI on the substrate (in words) [1]: showed activity
0%	0%				NeuAcα2,8NeuAcα2,8Galβ1,3GalNAcβ1,4(NeuAcα2,8NeuAcα2,3)Galβ1,4Glcβ1-Cer [GQ1b]	

The remaining lines, values behind:

Compound	Relative rate (%) Mouse ST8SiaVI [1]	Relative rate (%) Human ST8Sia VI [2]	Relative rate (%) Mouse ST6Gal II [3]	Relative rate (%) Human ST6Gal II [4]	Relative rate (%) Human ST6Gal I [5]	other results
CC(=O)N[C@H]1C(O)O[C@H](CO)[C@H](O)[C@@H]1O[C@@H]1O[C@H](CO)[C@H](O)[C@H](O)[C@H]1O (stereo partly shown) [Type III, Galβ1,3GalNAc]			0%	0%	0%	
CC(=O)N[C@H]1[C@H]([C@H](O)[C@H](O)CO)O[C@@](O[C@H]2[C@@H](O)[C@@H](CO)O[C@@H](O[C@H]3[C@H](O)[C@@H](O)C(O)O[C@@H]3CO)[C@@H]2O)(C(=O)O)C[C@@H]1O (stereo partly shown) [3′-Sialyllactose, NeuAcα2,3Galβ1,4Glc]	629%	69.9%				
Galβ1,3GlcNAcβ1,3Galβ1,4Glc [Lacto-N-tetraose]			0%	0%	31.1%	activity of human ST6Gal I on the substrate (in words) [5]: showed activity
OC[C@H]1O[C@@H](O[C@H]2[C@H](O)[C@@H](O)C(O)O[C@@H]2CO)[C@H](O)[C@@H](O)[C@H]1O (stereo partly shown) [Lactose, Galβ1,4Glc]			0%	0%	8.7%	activity of human ST6Gal I on the substrate (in words) [5]: showed activity
Galβ1,4GlcNAc [Type II]			100* %		100*** %	incorporation obtained with Galβ1,4GlcNAc ([3]; Mouse ST6Gal II, the value set as 100): *, 2.74 pmol/h/ml medium.; incorporation obtained with Galβ1,4GlcNAc ([4]; Human ST6Gal II, the value set as 100): **, 1.03 pmol/h/ml medium.; incorporation obtained with Galβ1,4GlcNAc ([5]; Human ST6Gal I, the value set as 100): ***, 8.14 pmol/h/ml medium.
